From US11976069B2, “Inhibitors of histone deacetylase useful for the treatment or prevention of HIV infection” (Merck Sharp & Dohme LLC, priority 2019, dated 2024)
Read-outs that look alike come from different tables or passages of the source.

Test system: KARN cells (Jurkat 2C4)
Assay: KARN assay (luciferase induction)
Type: cell-based
Settings: ~20 hr, 100% induction = 2 μM SAHA
Experimental: KARN cells (Jurkat 2C4) were licensed from the laboratory of Dr. John Kam, Case Western Reserve University, School of Medicine. […] An atmosphere of 5% CO2 and 90% humidity was used for all culture work. Cells were split and reseeded into T175 flasks at a density of 0.2×10^6 cells/ml, in 40 ml of media, every 3-4 days.
Day 1: After the 3-4 day growth period, the cells were transferred from the T175 flask to a 50 ml conical tube and gently pelleted at 1000 rpm for 5 minutes. […] These flasks were returned to the incubator.
Day 2: Cell Preparation: The next day, the cells were transferred from each T175 flask to an individual 50 ml conical tube and gently pelleted at 1000 rpm for 5 minutes. The cells were gently resuspended in assay media (30 ml) and pelleted again. […] The cells were counted using the ViCell (Beckman Coulter, Brea, Calif.) and diluted as necessary. A Multidrop (Combi, Thermo Scientific, Waltham, Mass.) with a sterile head was used to seed the cells into the wells of a 384-well solid black plate with lid (Perkin Elmer, Waltham, Mass., catalog number 6007660) at 4000 cells/30 μl/well for the 5% NHS assay media and 6000 cells/30 μl/well for 0.1% NHS assay. The plates were covered and returned to the incubator prior to compound addition.
Compound Preparation: Solutions of control inhibitor suberoylanilide hydroxamic acid (SAHA; Sigma, catalog number SML0061) and test compounds in 100% DMSO were titrated into 384-well polypropylene plates (Labcyte, San Jose, Calif., catalog number P-05525) using a 20-point dose response and 2-fold dilutions. The reference compounds, DMSO and SAHA were then added to the compound plate. Using the Access system (Labcyte), 120 nl of these inhibitor and control solutions were added to the individual wells of the plates containing the cells, and the plates were then returned to the incubator for ˜20 hr (range from 18-24 hr). The final high concentration for SAHA and the test compounds in the assays was 40 μM. The final DMSO concentration in all wells was 0.4%. The minimal induction reference compound used was DMSO and the maximal induction reference compound used was SAHA (2 μM final concentration in the assay).
Day 3: The luciferase detection reagent was prepared by transferring the contents of one bottle of Steady-Glo buffer to one bottle of Steady-Glo substrate (Steady-Glo Luciferase Assay System, Promega, Madison, […]., catalog number E2520), followed by gently mixing until the substrate was thoroughly dissolved and the solution was equilibrated to room temperature. The cell culture assay plates were removed from the incubator and brought to room temperature (15 min). The Steady-Glo Reagent was added to the plates (30 μl/well), which were then covered with a black lid and incubated for 10 minutes at room temperature. The plates were then read for luminescence on an Envision (Perkin Elmer) using the ultrasensitive mode (US LUM), […] and 384-well aperture. Luminescence counts in the DMSO reference wells were considered as 0% induction, while those in the 2 μM SAHA reference wells were considered as 100% induction. Dose response curves were plotted as test compound concentration (X-axis) vs. percent activation (Y-axis) using a 4-parameter fit based on the Levenberg-Marquardt algorithm.

[1] = Jurkat, read-out: Karn EC50 with 0.1% NHS, 0.1% normal human serum
[2] = Jurkat, read-out: Karn EC50 with 5% NHS, 5% normal human serum
[3] = read-out: Karn EC50 with 0.1% NHS, 0.1% normal human serum
[4] = read-out: Karn EC50 with 5% NHS, 5% normal human serum

Compound | EC50 [1] | EC50 [2] | EC50 [3] | EC50 [4]
CCC(=O)CCCCC[C@@H]1NC(=O)[C@H]2CC23CCN(CCCCCCCCn2ccc4cc(c(OC)cc4c2=O)-c2cnc1[nH]2)CC3 [Compound 5, (1^1S,4S)-6^7-methoxy-4-(6-oxooctyl)-6^1,6^2-dihydro-5^1H-3-aza-6(6,2)-isoquinolina-15(4,1)-piperidina-5(2,5)-imidazola-1(1,2)-cyclopropanapentadecaphane-6^1,2-dione] | 0.011 µM | 0.012 µM |  | 
CCC(=O)CCCCCC1NC(=O)C2CC2N2CCC(CCCCCn3c(=O)ccc4cc(ccc43)-c3cnc1o3)CC2 [Compound 7, (11S,4S)-4-(6-oxooctyl)-61,62-dihydro-3-aza-5(2,5)-oxazola-6(6,1)-quinolina-12(4,1)-piperidina-1(1,2)-cyclopropanadodecaphane-62,2-dione] |  |  | 5.15 µM | 4.73 µM
CCC(=O)CCCCC[C@@H]1NC(=O)[C@H]2CC23CCN(CCCOCCCn2ccc4cc(ccc4c2=O)-c2cnc1[nH]2)CC3 [Compound 12, (3S,6S)-6-(6-oxooctyl)-22-oxa-5,8,18,26,33-pentaazahexacyclo[24.2.2.1˜7,10˜0.1˜11,15˜0.1˜14,18˜0.0˜1,3˜]tritriaconta-7,9,11(32),12,14,16-hexaene-4,31-dione] | 1.79 µM | 1.99 µM |  | 
CCC(=O)CCCCC[C@H](NC(=O)[C@H]1CC12CCN(CC)CC2)c1[nH]c2nc1C(=O)NCCC/C=C/c1cccc-2c1 [Compound 15, (1S)-6-ethyl-N-{(1S)-7-oxo-1-[(11E)-6-oxo-3,7,18-triazatricyclo[11.3.1.1~2,5~]octadeca-1(17),2(18),4,11,13,15-hexaen-4-yl]nonyl}-6-azaspiro[2.5]octane-1-carboxamide] | 5.24 µM | 19.3 µM |  | 
(11S,4S)-4-(6-oxooctyl)-61,62-dihydro-3-aza-5(2,5)-oxazola-6(6,1)-quinolina-12(4,1)-piperidina-1(1,2)-cyclopropanadodecaphane-62,2-dione [Compound 8] |  |  | > 40 µM | > 40 µM
